In patent publication US7601686B2, “Hepatitis C virus inhibitors” (Bristol-Myers Squibb Company, priority 2005, dated 2009):
pIC50: −log10 of the molar value.

Biological target: T1, human neutrophil elastase (HNE) (Homo sapiens, UniProt P08246)
T1 construct: purchased Sigma
T1 sequence (P08246 30-267): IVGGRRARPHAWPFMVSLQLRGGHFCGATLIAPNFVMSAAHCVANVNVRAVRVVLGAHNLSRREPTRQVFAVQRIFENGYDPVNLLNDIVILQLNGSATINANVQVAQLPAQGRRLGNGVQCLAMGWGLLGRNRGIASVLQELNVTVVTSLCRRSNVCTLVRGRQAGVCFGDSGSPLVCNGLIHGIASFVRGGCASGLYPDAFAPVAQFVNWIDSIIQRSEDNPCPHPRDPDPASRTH
Experiment: Specificity assay, human neutrophil elastase
Assay type: biochemical
Conditions: 2 h enzyme-inhibitor pre-incubation; read-out: HLE activity in the specificity assays
Procedure: The specificities of compounds of the present disclosure were determined against a variety of serine proteases: human neutrophil elastase (HNE), porcine pancreatic elastase (PPE) and human pancreatic chymotrypsin and one cysteine protease: human liver cathepsin B. In all cases a 96-well plate format protocol using colorimetric p-nitroaniline (pNA) substrate specific for each enzyme was used as described previously (PCT Patent Application No. WO 00/09543) with some modifications to the serine protease assays. All enzymes were purchased from Sigma while the substrates were from Bachem.
Each assay included a 2 h enzyme-inhibitor pre-incubation at room temperature followed by addition of substrate and hydrolysis to ˜30% conversion as measured on a Spectramax Pro microplate reader. Compound concentrations varied from 100 to 0.4 μM depending on their potency.
The final conditions for each assay were the same as those described in WO 03/099274, page 623.
The percentage of inhibition was calculated using the formula: [1−((UVinh−UVblank)/(UVctl−UVblank))]×100
A non-linear curve fit was applied to the inhibition-concentration data, and the 50% effective concentration (IC50) was calculated by the use of Excel XLfit software.

With `C=CC1CC1(NC(=O)[C@@H]1C[C@@H](NC(=O)c2cc(-c3ccccc3)nc3ccccc23)CN1C(=O)[C@@H](NC(=O)CC1CC1)C(C)(C)C)C(=O)NS(=O)(=O)C1CC1` (stereo partly shown) [Compound 9] the pIC50 was < 4.00.
